From PubChem BioAssay AID2060504 (Molecular Pharmacology Branch, DTP, NCI, 2025)
Where “and” joins values, the source holds several entries; their conditions need not be identical. Equal entries are not always repeated.

Tested on: 636577-100-R-J1-PDC complex spheroid viability
Assay: Anticancer human tumor 636577-100-R-J1-PDC patient-derived endometrial adenocarcinoma cell line growth inhibition [GQUAD]
Conditions: for viability, T/C: stronger effect = lower value
Source text: DNA G-quadruplex Stabilizer Agents in Combinations in Complex Spheroids
A high-throughput screen of multi-cell type tumor spheroids was designed to identify active combinations of DNA G-quadruplex stabilizer agents and targeted small molecules. Complex spheroids include a stromal component modeled by human endothelial cells (HUVEC) and fibroblasts modeled by human mesenchymal stem cells (MSCs). The concentration ranges selected for each drug and investigational agent were based upon clinically achievable concentrations if the clinical Cmax of the agent was known.
Compounds. The drugs and investigational agents: pidnarulex (CX-5461; NSC782164), APTO-253 (NSC789042), BRACO-19 (NSC847499), peposertib (NSC802822), ceralasertib (NSC780249), elimusertib (NSC800525), camonsertib (NSC841442), AZD-1390 (NSC803789), olaparib (NSC753686), talazoparib (NSC767125), ART-558 (NSC835418), sotorasib (NSC818433), MRTX-1133 (NSC836407), SN-38 (NSC673596), topotecan (NSC609699), etoposide (NSC141540), doxorubicin (NSC123127), gemcitabine (NSC613327), 5-fluorouracil (NSC19893), paclitaxel (NSC125973), vemurafenib (NSC761431), panobinostat (NSC761190), R-306465 (JNJ-16241199; NSC773264), adavosertib (NSC754352), TP-3654 (NSC805149), carboplatin (NSC241240), KSQ-4279 (NSC840948), and staurosporine (NSC755774) were obtained from the National Cancer Institute (NCI) Developmental Therapeutics Program Chemical Repository (34). The FDA-approved anticancer drug set is available from the NCI Developmental Therapeutics Program. […] The stock solutions were prepared in dimethyl sulfoxide (DMSO, Sigma-Aldrich, St. Louis, MO, cat. D2650) at 800-fold the tested concentration and stored at -70 degrees C prior to their use. All drugs and investigational agents were tested over a range starting from a high concentration at or near the clinical Cmax and decreasing in half-log increments. If the clinical Cmax for an agent had not been determined, the highest concentration tested was 10 microM.
2.3 Cell Culture. All cells were maintained in an incubator at 37 degrees C and 5% CO2 with 95% humidity. The PDC lines were cultured according to standard operating procedures established by the NCI PDMR. All PDCs were thawed and cultured in Matrigel-coated flasks prepared with a working solution of 1X Ham's F-12 nutrient mix, without supplementation (Invitrogen, cat. 11765054), 100 U/mL penicillin-streptomycin (Invitrogen, cat. 15140122), and 2.5% Matrigel (Corning Inc., cat. 354248) for the first three passages. The 857933-349-R-J2-PDC line was cultured in 6C/Colon 1B media, which includes advanced DMEM/F-12 (Thermo Fisher Scientific, cat. 12634028), 10 mM HEPES (Thermo Fisher Scientific, cat. 15630080), 1X GlutaMAX supplement (Thermo Fisher Scientific, cat. 35050061), 0.1 mg/mL primocin (InvivoGen, cat. ant-pm-2), 10% defined fetal bovine serum, heat inactivated (HyClone Laboratories Inc., cat. SH30070.03HI), 50% L-WRN conditioned media (ATCC, cat. CRL-3276), 1.25 mM N-Acetyl-L-cysteine (Sigma-Aldrich, cat. A9165), 10 mM nicotinamide (Sigma-Aldrich, cat. N0636), 1X B-27 supplement (Thermo Fisher Scientific, cat. 17504044), 1X N-2 supplement (Thermo Fisher Scientific, cat. 17502048), 10 microM Y-27632 dihydrochloride (Tocris Bioscience, cat. 1254), and 50 ng/mL human EGF recombinant protein (Thermo Fisher Scientific, cat. PHG0311). The 485176-168-R4-J1-PDC line was cultured in Panc media, which includes all 6C/Colon 1B media components plus 100 ng/mL human FGF-10 (Thermo Fisher Scientific, cat. 100-26), 500 nM SB-431542 (Selleckchem, cat. S1067), and gastrin (Tocris, cat. 3006).
[…]
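Also: viability read after seven days of drug exposure.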
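For viability, T/C in this document: luminescence signal used as a proxy for viable cells; 100% = DMSO vehicle control wells.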

## COc1cc(C2c3cc4c(cc3C(OC3OC5COC(C)OC5C(O)C3O)C3COC(=O)C23)OCO4)cc(OC)c1O (configuration not stated)
Compound 0.0316 µM
  viability, T/C: 80.7% and 81.6% and 73.5%
Compound 0.1 µM
  viability, T/C: 43.7% and 40.4% and 34.9%
Compound 0.316 µM
  viability, T/C: 24.3% and 21.7% and 21.6%
Compound 1 µM
  viability, T/C: 18.6% and 19% and 17.9%
Compound 3.16 µM
  viability, T/C: 15.4% and 13.9% and 16.5%
Compound 10 µM
  viability, T/C: 13% and 12.7% and 13.3%
Curve of compound
  IC50: 0.0819 µM and 0.0762 µM and 0.064 µM

## COc1ccc([C@@H](O)c2cc(-c3ncnc4cc(N5CCOCC5)ccc34)c(F)cc2Cl)nn1
Compound 0.0316 µM
  viability, T/C: 93% and 95.4% and 33.8%
Compound 0.1 µM
  viability, T/C: 96.2% and 61.9% and 97.4%
Compound 0.316 µM
  viability, T/C: 86.4% and 88.9% and 65.4%
Compound 1 µM
  viability, T/C: 55.2% and 54.6% and 49.7%
Compound 3.16 µM
  viability, T/C: 42.5% and 43.1% and 36.6%
Compound 10 µM
  viability, T/C: 28.1% and 22.5% and 25.5%
Curve of compound
  IC50: 1.58 µM and 1.97 µM and 1.17 µM

## COc1cccc2c1C(=O)c1c(O)c3c(c(O)c1C2=O)CC(O)(C(=O)CO)CC3OC1CC(N)C(O)C(C)O1 (configuration not stated)
Compound 0.0316 µM
  viability, T/C: 28.9% and 27% and 34.2%
Compound 0.1 µM
  viability, T/C: 18.4% and 18.1% and 16.8%
Compound 0.316 µM
  viability, T/C: 15.4% and 13.9% and 14.7%
Compound 1 µM
  viability, T/C: 7.51% and 9.99% and 11.6%
Compound 3.16 µM
  viability, T/C: 0.17% and 0.21% and 0.44%
Compound 10 µM
  viability, T/C: 0.53% and 0.32% and 0.4%
Curve of compound
  IC50: < 0.0316 µM

## COc1ncnc(C2CC2)c1-c1ncc2cnn(Cc3ccc(-c4nc(C(F)(F)F)cn4C(C)C)cc3)c2n1
Compound 0.0316 µM
  viability, T/C: 72.1% and 66.5% and 79.3%
Compound 0.1 µM
  viability, T/C: 70% and 60.2% and 82.1%
Compound 0.316 µM
  viability, T/C: 54.8% and 66.5% and 102%
Compound 1 µM
  viability, T/C: 72.7% and 57.8% and 88.1%
Compound 3.16 µM
  viability, T/C: 64.7% and 64.6% and 68%
Compound 10 µM
  viability, T/C: 59.5% and 68.5% and 65.4%
Curve of compound
  IC50: > 10 µM

## Cc1[nH]c2ccc(F)cc2c1-c1nc2c3cccnc3c3ncccc3c2[nH]1
Compound 1 µM
  viability, T/C: 86.1% [middle of 9 runs]
Compound 3.16 µM
  viability, T/C: 38.6% [middle of 9 runs]
Compound alone, run of 03/18/2024
  IC50: > 10 µM and 3.07 µM and 3.21 µM
Compound alone, run of 03/26/2024
  IC50: 2.16 µM [middle of 4 runs]

## Cc1[nH]c2ccccc2c1CCNCc1ccc(/C=C/C(=O)NO)cc1
Compound 0.000999 µM
  viability, T/C: 80% and 86.3% and 79%
Compound 0.00316 µM
  viability, T/C: 57.6% and 53.8% and 75.6%
Compound 0.00999 µM
  viability, T/C: 34.1% and 38.9% and 51.3%
Compound 0.0316 µM
  viability, T/C: 15.3% and 17.2% and 16.4%
Compound 0.0999 µM
  viability, T/C: 6.66% and 8% and 7.02%
Compound 0.316 µM
  viability, T/C: 9.32% and 8.7% and 9.38%
Curve of compound
  IC50: 0.00463 µM and 0.00441 µM and 0.0104 µM

## Cc1cccc(N(C)C(=O)C2C(O)CCN2c2nc(C)cc(C(F)(F)F)c2C#N)c1 (configuration not stated)
Compound 0.0316 µM
  viability, T/C: 55.9% and 99.9% and 91.4%
Compound 0.1 µM
  viability, T/C: 87% and 96.7% and 33.3%
Compound 0.316 µM
  viability, T/C: 95.6% and 94.5% and 96%
Compound 1 µM
  viability, T/C: 75.2% and 81.8% and 94.4%
Compound 3.16 µM
  viability, T/C: 76% and 84.7% and 55.7%
Compound 10 µM
  viability, T/C: 74.4% and 87.5% and 49.5%
Curve of compound
  IC50: > 10 µM and 9.35 µM

## Cc1cnc(CNC(=O)c2c(=O)c3ccc(N4CCCN(C)CC4)nc3n3c2sc2ccccc23)cn1
Compound 0.0316 µM
  viability, T/C: 50.9% [middle of 10 runs]
Compound 0.1 µM
  viability, T/C: 29.8% [middle of 10 runs]
Compound 0.316 µM
  viability, T/C: 26.9% [middle of 10 runs]
Compound 1 µM
  viability, T/C: 24.9% [middle of 10 runs]
Compound 3.16 µM
  viability, T/C: 22.2% [middle of 10 runs]
Compound 10 µM
  viability, T/C: 20.8% [middle of 10 runs]

## Cn1ncnc1[C@H]1c2n[nH]c(=O)c3cc(F)cc(c23)N[C@@H]1c1ccc(F)cc1
Compound 0.000999 µM
  viability, T/C: 116% and 71.8% and 77.3%
Compound 0.00316 µM
  viability, T/C: 99% and 81.1% and 72.7%
Compound 0.00999 µM
  viability, T/C: 94.9% and 91.4% and 85.6%
Compound 0.0316 µM
  viability, T/C: 69.3% and 56% and 68.8%
Compound 0.0999 µM
  viability, T/C: 44.9% and 52.2% and 43.4%
Compound 0.316 µM
  viability, T/C: 29.7% and 35.6% and 29.1%
Curve of compound
  IC50: 0.0834 µM and 0.0557 µM and 0.0741 µM

## Nc1ccn(C2OC(CO)C(O)C2(F)F)c(=O)n1 (configuration not stated)
Compound 0.0316 µM
  viability, T/C: 15% and 15.2%
Compound 0.1 µM
  viability, T/C: 14.2% and 11.3%
Compound 0.316 µM
  viability, T/C: 17.7% and 13.5%
Compound 1 µM
  viability, T/C: 16.3% and 13.1%
Compound 3.16 µM
  viability, T/C: 13.8% and 14.3%
Compound 10 µM
  viability, T/C: 14.2% and 11%
Curve of compound
  IC50: < 0.0316 µM

## O=C(NO)c1cnc(N2CCN(S(=O)(=O)c3ccc4ccccc4c3)CC2)nc1
Compound 0.0316 µM
  viability, T/C: 37.6% and 34.2% and 52.9%
Compound 0.1 µM
  viability, T/C: 16.6% and 16.8% and 20.5%
Compound 0.316 µM
  viability, T/C: 7.21% and 7.67% and 7.55%
Compound 1 µM
  viability, T/C: 5.31% and 5.87% and 4.07%
Compound 3.16 µM
  viability, T/C: 0.18% and 0.1% and 0.17%
Compound 10 µM
  viability, T/C: 0.11% (2×) and 0.08%
Curve of compound
  IC50: < 0.0316 µM and 0.0348 µM

## O=C(c1cc(Cc2n[nH]c(=O)c3ccccc23)ccc1F)N1CCN(C(=O)C2CC2)CC1
Compound 0.0316 µM
  viability, T/C: 91.1% and 68.5%
Compound 0.1 µM
  viability, T/C: 89.5% and 65.9%
Compound 0.316 µM
  viability, T/C: 96.8% and 82.5%
Compound 1 µM
  viability, T/C: 62.5% and 63.3%
Compound 3.16 µM
  viability, T/C: 56.2% and 45.9%
Compound 10 µM
  viability, T/C: 37.6% and 29%
Curve of compound
  IC50: 2.51 µM and 2.43 µM

## O=c1[nH]cc(F)c(=O)[nH]1
Compound 0.0316 µM
  viability, T/C: 102% and 99.7%
Compound 0.1 µM
  viability, T/C: 85% and 68.9%
Compound 0.316 µM
  viability, T/C: 101% and 89.5%
Compound 1 µM
  viability, T/C: 76.2% and 91.4%
Compound 3.16 µM
  viability, T/C: 44.2% and 71%
Compound 10 µM
  viability, T/C: 24.7% and 28.6%
Curve of compound
  IC50: 2.53 µM and 5.59 µM
